# Assay results reported in patent publication US6498126B1, “Herbicide combination with acylated aminophenylsulfonylureas” (Aventis CropScience GmbH, priority 1999, dated 2002).
# Tested on: Setaria lutescens
# Assay: Herbicidal action (field trials), post-emergence treatment, visual scoring of damage
# Type: in vivo
# Description: The seeds or rhizome pieces of typical harmful plants were planted and grown under natural field conditions. After the harmful plants had emerged, they were treated, as a rule at the 2-to 8-leaf stage, with various dosages of the compositions according to the invention at a water application rate of 100 to 400 I/ha (converted).
# After the treatment (approx. 4-6 weeks after application), the herbidical activity of the active ingredients or active ingredient mixtures was scored visually by comparing the treated plots with the untreated control plots. Damage and development of all aerial parts of the plants was recorded. Scoring was done on a percentage scale (100% action=all plants dead; 50% action=50% of the plants and green plant parts dead; 0% action=no discernible action=like control plot). The score figures of in each case 4 plots was averaged.
# The results are shown in the tables which follow, the action when using active ingredients A and B independently being stated in brackets.
compound,measurement,setting,value
"COc1cc(OC)nc(NC(=O)NS(=O)(=O)c2cc(NC=O)ccc2C(=O)N(C)C)n1 [A1.1, N-[N-(4,6-dimethoxypyrimidin-2-yl)-aminocarbonyl]-2-(dimethyl-aminocarbonyl)-5-(formylamino)benzenesulfonamide]",Herbicidal effect on Setaria lutescens Damage in %,"Table 1, 35 gAS/ha, treatment at the 6-8 leaf stage, scoring 27 days after application",30%
same,Herbicidal effect on Setaria lutescens Damage in %,"Table 1, 70 gAS/ha, treatment at the 6-8 leaf stage, scoring 27 days after application",97%
same,Herbicidal effect on Setaria lutescens Damage in %,"Table 2, 35 gSA/ha, treatment at the 6-8 leaf stage, scoring 27 days after application",30%
same,Herbicidal effect on Setaria lutescens Damage in %,"Table 2, 70 gSA/ha, treatment at the 6-8 leaf stage, scoring 27 days after application",97%
same,Herbicidal effect on Setaria lutescens Damage in %,"Table 3, 35 gAS/ha, treatment at the 2-leaf stage, scoring 39 days after application",65%
same,Herbicidal effect on Setaria lutescens Damage in %,"Table 3, 70 gAS/ha, treatment at the 2-leaf stage, scoring 39 days after application",87%
same,Herbicidal effect on Setaria lutescens Damage in %,"Table 4, 35 gAS/ha, treatment at the 6-8 leaf stage, scoring 27 days after application",65%
same,Herbicidal effect on Setaria lutescens Damage in %,"Table 4, 70 gAS/ha, treatment at the 6-8 leaf stage, scoring 27 days after application",85%
"CS(=O)(=O)NC(=O)c1cc(Oc2ccc(C(F)(F)F)cc2Cl)ccc1[N+](=O)[O-] [Fumesafen (B2.9), 5-(2-chloro-α,α,α-trifluoro-p-tolyloxyl)N-methylsulfonyl-2-nitrobenzamide, reference compound]",Herbicidal effect on Setaria lutescens Damage in %,"Table 3, 240 gAS/ha, treatment at the 2-leaf stage, scoring 39 days after application",25%
"COc1cc(OC)nc(Sc2cccc(Cl)c2C(=O)[O-])n1.[Na+] [Pyrithiobac (B2.7), sodium 2-chloro-6-(4,6-dimethoxypyrimidin-2-ylthio)benzoate, reference compound]",Herbicidal effect on Setaria lutescens Damage in %,"Table 4, 105 gAS/ha, treatment at the 6-8 leaf stage, scoring 27 days after application",25%
"CCOc1nc(NC)nc(NC(=O)NS(=O)(=O)c2ccccc2C(=O)OC)n1 [ethametsulfuron (B2.6), methyl 2-{N-[N-(4-ethoxy-6-methylamino-1,3,5-triazin-2-yl)-aminocarbonyl]-aminosulfonyl}benzoate, reference compound]",Herbicidal effect on Setaria lutescens Damage in %,"Table 1, 15 gAS/ha, treatment at the 6-8 leaf stage, scoring 27 days after application",33%
